According to patent US20040248887A1, “Inhibitors of cathepsin S” (IRM LLC, priority 2003, published 2004):

The compounds below were run against Cathepsin S (Homo sapiens, UniProt P25774) (assay: Cathepsin S inhibition, fluorogenic peptide substrate kinetic assay). Conditions: Table II; Cathepsin S inhibition constant, pH5.5; read-out: Ki Cat. S.
Format: biochemical
From the text: “Inhibition constant”, Ki, is the dissociation constant of the enzyme-inhibitor complex, or the reciprocal of the binding affinity of the inhibitor to the enzyme. […] The inhibited rates are then fit by nonlinear regression to the following equation: [formula]
where vo is the initial rate of substrate processing in the absence of inhibitor, v; is the initial rate of substrate processing at a concentration [I] of inhibitor, Km is the steady state Michaelis constant (Fersht, A. Structure and Mechanism in Protein Science. New York, W.H. Freeman and Company, 1999), and [S] is the concentration of competitive substrate.
The assumption being made for the classical inhibition described above is that the free inhibitor concentration is equal to the total inhibitor concentration.
The inhibition constant, Ki, can be determined from the apparent inhibition constant, Ki^app, for competitive inhibitors by using the following relationship: [formula]
The optimal substrate for cathepsin S, acetyl-histidine-proline-valine-lysine-amino carbamoyl coumarin, was identified from screening a combinatorial library of fluorogenic peptide substrates (Harris, J. L., B. J. Backes, et al., Proc Natl Acad Sci USA 2000, 97(14), 7754-9). Kinetic measurements are performed in a total reaction volume of 30 μl in 384-well microtiter plates. […] The reactions are initiated by adding the substrate, acetyl-histidine-proline-valine-lysine-amino carbamoyl coumarin, to a final concentration of 50 μM. The rate of substrate hydrolysis is measured by monitoring the increase in fluorescence at an excitation wavelength of 380 nm and an emission wavelength of 450 nm that results from cleavage of the aniline bond in the substrate by the enzyme. The apparent inhibition constants for the compounds are determined from the enzyme progress curves (Kuzmic, P., K. C. Elrod, et al., Anal Biochem 2000, 286(1), 45-50) and are then used to calculate the inhibition constants for competitive inhibitors.

Sequence of Cathepsin S (P25774 115-331, species assumed): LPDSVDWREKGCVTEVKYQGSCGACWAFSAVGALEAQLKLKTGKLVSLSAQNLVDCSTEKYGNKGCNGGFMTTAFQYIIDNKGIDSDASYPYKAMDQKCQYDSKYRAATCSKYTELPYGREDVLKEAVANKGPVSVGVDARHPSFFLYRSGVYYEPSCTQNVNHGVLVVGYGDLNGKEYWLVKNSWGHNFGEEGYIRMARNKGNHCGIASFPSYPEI

Ki [nM] | SMILES
< 10000 | C[C@@H](CNc1ccc(OC(F)(F)F)cc1)NC(=O)[C@H](CC(C)(C)C)NC(=O)[C@H]1CCCO1 [Compound 268, Tetrahydrofuran-2-(R)-carboxylic acid {3,3-dimethyl-1-(S)-[1-(S)-methyl-2-(4-trifluoromethoxy-phenylamino)-ethylcarbamoyl]-butyl}-amide]
< 100 | C[C@@H](CN1CC(C)(C)c2cc(F)ccc21)NC(=O)[C@H](CC1CCCCC1)NC(=O)C1CCOCC1 [Compound 173, Tetrahydropyran-4-carboxylic acid {2-cyclohexyl-1-(S)-[2-(5-fluoro-3,3-dimethyl-2,3-dihydro-indol-1-yl)-1-(S)-methyl-ethylcarbamoyl]-ethyl}-amide]
< 100 | C[C@@H](CNc1c(F)cccc1F)NC(=O)[C@H](CC1CCCCC1)NC(=O)c1ccc(-c2cccc(F)c2)o1 [Compound 92, 5-(3-Fluoro-phenyl)-furan-2-carboxylic acid {2-cyclohexyl-1-(S)-[2-(2,6-difluoro-phenylamino)-1-(S)-methyl-ethylcarbamoyl]-ethyl}-amide]
< 100 | COc1cc(COC[C@@H](CN2CCc3cc(F)ccc32)NC(=O)[C@H](CCC2CCCCC2)NC(=O)c2cccc(OC)c2)cc(OC)c1 [Compound 170, N-{3-Cyclohexyl-1-(S)-[2-(3,5-dimethoxy-benzyloxy)-1-(R)-(5-fluoro-2,3-dihydro-indol-1-ylmethyl)-ethylcarbamoyl]-propyl}-3-methoxy-benzamide]
< 1000 | O=C(N[C@@H](CC1CCCCC1)C(=O)NCCN1CCc2cc(F)ccc21)C1CCN(C(=O)c2ccccc2)CC1 [Compound 5, 1-Benzoyl-piperidine-4-carboxylic acid (S)-{2-cyclohexyl-1-[2-(5-fluoro-2,3-dihydro-indol-1-yl)-ethylcarbamoyl]-ethyl}-amide]
< 10000 | O=C(NCCN1CCc2cc(F)ccc21)[C@H](CC1CCCCC1)NS(=O)(=O)Cc1ccccc1 [Compound 242, (S)-3-Cyclohexyl-N-[2-(5-fluoro-2,3-dihydro-indol-1-yl)-ethyl]-2-phenylmethanesulfonylamino-propionamide]
< 100 | CC(C)(C)C[C@H](NC(=O)OC(C)(C)C)C(=O)N[C@@H](COCc1ccccc1)CN1CCc2cc(F)ccc21 [Compound 154, {1-(S)-[1-(R)-Benzyloxymethyl-2-(5-fluoro-2,3-dihydro-indol-1-yl)-ethylcarbamoyl]-3,3-dimethyl-butyl}-carbamic acid tert-butyl ester]
< 100 | Cc1nnc(-c2cccc(S(=O)(=O)N[C@@H](CC3CCCCC3)C(=O)NCCN3CCc4cc(F)ccc43)c2)o1 [Compound 233, (S)-3-Cyclohexyl-N-[2-(5-fluoro-2,3-dihydro-indol-1-yl)-ethyl]-2-[3-(5-methyl-[1,3,4]oxadiazol-2-yl)-benzenesulfonylamino]-propionamide]
< 100 | Cc1ccc(C(C)C(=O)N[C@@H](CC2CCCCC2)C(=O)NCCN2CCc3cc(F)ccc32)cc1 (stereo partly drawn) [Compound 60, N-{2-cyclohexyl-1-(S)-[2-(5-fluoro-2,3-dihydro-indol-1-yl)-ethylcarbamoyl]-ethyl}-2-p-tolyl-propionamide]
< 100 | O=C(N[C@@H](CC1CCCCC1)C(=O)NCCN1CCc2cc(F)ccc21)C1CC1 [Compound 14, Cyclopropanecarboxylic acid (S)-{2-cyclohexyl-1-[2-(5-fluoro-2,3-dihydro-indol-1-yl)-ethylcarbamoyl]-ethyl}-amide]
< 1000 | Cc1cc(NC[C@H](C)NC(=O)[C@H](CC2CCCCC2)NC(=O)c2ccc(-c3cccc(F)c3)o2)on1 [Compound 247, 5-(3-Fluoro-phenyl)-furan-2-carboxylic acid {2-cyclohexyl-1-(S)-[1-(S)-methyl-2-(3-methyl-isoxazol-5-ylamino)-ethylcarbamoyl]-ethyl}-amide]
< 100 | O=C(NC(C(=O)NC(CO)CN1CCc2cc(F)ccc21)c1ccc(Cl)cc1Cl)c1ccco1 [Compound 209, N-(S)-((3-(5-fluoroindolin-1-yl)-1-hydroxypropan-2-(R)-ylcarbamoyl)(2,4-dichlorophenyl)methyl)furan-2-carboxamide]
< 1000 | O=C(NCCN1CCc2cc(F)ccc21)[C@H](CC1CCCCC1)NS(=O)(=O)c1ccc(OC(F)F)cc1 [Compound 240, (S)-3-Cyclohexyl-2-(4-difluoromethoxy-benzenesulfonylamino)-N-[2-(5-fluoro-2,3-dihydro-indol-1-yl)-ethyl]-propionamide]
< 1000 | Cc1cc(NC[C@H](C)NC(=O)[C@H](CC2CCCCC2)NC(=O)c2ccc(-c3cccc(F)c3)o2)sn1 [Compound 267, 5-(3-Fluoro-phenyl)-furan-2-carboxylic acid {2-cyclohexyl-1-(S)-[1-(S)-methyl-2-(3-methyl-isothiazol-5-ylamino)-ethylcarbamoyl]-ethyl}-amide]
< 1000 | CC(=O)N1CCC(Oc2ccc(C(=O)N[C@@H](CC3CCCCC3)C(=O)NCCN3CCc4cc(F)ccc43)cc2)CC1 [Compound 69, 4-(1-Acetyl-piperidin-4-yloxy)-N-(S)-{2-cyclohexyl-1-[2-(5-fluoro-2,3-dihydro-indol-1-yl)-ethylcarbamoyl]-ethyl}-benzamide]
< 100 | C[C@@H](CN1CCc2cc(F)ccc21)NC(=O)[C@H](CC1CCCCC1)NS(=O)(=O)c1cccc(OC(F)(F)F)c1 [Compound 254, (S,S)-3-Cyclohexyl-N-[2-(5-fluoro-2,3-dihydro-indol-1-yl)-1-methyl-ethyl]-2-(3-trifluoromethoxy-benzenesulfonylamino)-propionamide]
< 100 | O=C(N[C@@H](CC1CCCC1)C(=O)NCCN1CCc2cc(F)ccc21)c1ccc(-c2cccc(C(F)(F)F)c2)o1 [Compound 200, N-((S)-1-(2-(5-fluoroindolin-1-yl)ethylcarbamoyl)-2-cyclopentylethyl)-5-(3-(trifluoromethyl)phenyl)furan-2-carboxamide]
< 10000 | COc1ccc(N2CCC[C@@H](NC(=O)[C@H](CC(C)C)NC(=O)c3cccc(C)c3)C2)cc1 (single isomer, unassigned) [Compound 32]
< 100 | C[C@@H](C(=O)N[C@@H](CC1CCCCC1)C(=O)NCCN1CCc2cc(F)ccc21)c1ccccc1 [Compound 70, N-{2-cyclohexyl-1-(S)-[2-(5-fluoro-2,3-dihydro-indol-1-yl)-ethylcarbamoyl]-ethyl}-2-(R)-phenyl-propionamide]
< 100 | O=C(N[C@@H](CC1CCCCC1)C(=O)NCCN1CCc2cc(F)ccc21)c1ccc(-c2ccccc2)s1 [Compound 82, 5-Phenyl-thiophene-2-carboxylic acid (S)-{2-cyclohexyl-1-[2-(5-fluoro-2,3-dihydro-indol-1-yl)-ethylcarbamoyl]-ethyl}-amide]
< 1000 | O=C(N[C@@H](Cc1ccccc1)C(=O)NCCN1CCc2cc(F)ccc21)c1ccc(-c2cccc(C(F)(F)F)c2)o1 [Compound 206, N-((S)-1-(2-(5-fluoroindolin-1-yl)ethylcarbamoyl)-2-phenylethyl)-5-(3-(trifluoromethyl)phenyl)furan-2-carboxamide]
< 100 | C[C@@H](CN1CC(C)(C)c2cc(F)ccc21)NC(=O)[C@H](CC1CCCCC1)NC(=O)OC1CCOCC1 [Compound 215, (S,S)-{2-Cyclohexyl-1-[2-(5-fluoro-3,3-dimethyl-2,3-dihydro-indol-1-yl)-1-methyl-ethylcarbamoyl]-ethyl}-carbamic acid tetrahydro-pyran-4-yl ester]
< 100 | C[C@@H](CNc1ccc(OC(F)(F)F)cc1)NC(=O)[C@H](CC1CCCCC1)NC(=O)c1nnc(-c2cccc(F)c2)o1 [Compound 147, 5-(3-Fluoro-phenyl)-[1,3,4]oxadiazole-2-carboxylic acid {2-cyclohexyl-1-(S)-[1-(S)-methyl-2-(4-trifluoromethoxy-phenylamino)-ethylcarbamoyl]-ethyl}-amide]
< 10000 | COc1cccc(C(=O)N[C@@H](CCC2CCCCC2)C(=O)NCCN2CCc3cccc(OC)c32)c1 [Compound 8, (S)-N-{3-Cyclohexyl-1-[2-(7-methoxy-2,3-dihydro-indol-1-yl)-ethylcarbamoyl]-propyl}-3-methoxy-benzamide]
< 100 | C[C@@H](CNc1ccc(OC(F)(F)F)cc1)NC(=O)[C@H](CC1CCCCC1)NC(=O)O[C@H]1CCOC1 [Compound 189, {2-Cyclohexyl-1-(S)-[1-(S)-methyl-2-(4-trifluoromethoxy-phenylamino)-ethylcarbamoyl]-ethyl}-carbamic acid tetrahydrofuran-3-(S)-yl ester]
< 100 | C[C@@H](CNc1ccc(OCc2ccccc2)cc1)NC(=O)[C@H](CC1CCCCC1)NC(=O)c1ccc(-c2cccc(F)c2)o1 [Compound 266, 5-(3-Fluoro-phenyl)-furan-2-carboxylic acid {1-(S)-[2-(4-benzyloxy-phenylamino)-1-(S)-methyl-ethylcarbamoyl]-2-cyclohexyl-ethyl}-amide]
